Data as given in US6713633B1, “Compounds capable of cleaving double-stranded DNA and method of utilization of the same” (Japan Science and Technology Corporation, priority 1999, dated 2004).

Legend:
[1] = system: HeLaS3 cells; test: Growth Inhibitory Test on HeLaS3 Cells; format: cell-based; settings: Homo sapiens, HeLa S3, 72 hours incubation, cell counts
Procedure: Cytotoxic activity of the compound of the present invention based on the properties described hereinbefore was examined. Cytotoxic activities of PyPyLDu86 and ImPyLDu86 of the present invention and known anticancer agent duocarmycin on HeLaS3 cells (uterocervical squamous cell carcinoma cells) were tested.
Suspension 0.75 ml of HeLaS3 cells, 2.67×10^4 cells/ml, in MEM medium containing 10% fetal bovine serum and 2 mM glutamine, was dispensed into each well in 24 cell culture plate. After incubation in the CO2-incubator at 37° C. for overnight, 0.25 ml portions of each test compound shown in Table 1, which was appropriately diluted with medium, was added into each well.
After cells were incubated for 72 hours in the CO2-incubator, the culture supernatant was removed, and cells were dispersed using trypsin-ethylenediaminetetraacetic acid (EDTA) and collected. Cell counts were counted by cell counter, and cell counts without treatment and cell counts treated with known concentration of test compound were compared to calculate the concentration of test compound which inhibits 50% of cell growth (IC50).

[2] = system: 5′-end texas red-modified 450 bp DNA fragments pUC18 F780*-1229 and pUC18 R1459*-1908; test: Alkylation of 450 bp DNA fragments (thermally induced strand cleavage, high-resolution gel electrophoresis); format: biochemical
Text: Reactivities of the thus synthesized PyPyLDu86 and ImPyLDu86 with DNA were investigated.
The left electrophoresis pattern is a result of the upper strand of the double-strand DNA, and the right electrophoresis pattern is a result of the lower strand of the double-strand DNA. […] No compounds have been known to occur such the cleavage, and in this sense, the compound of the present invention can be said as an artificial restriction enzyme.
(1) Preparation of 5′-texas red-end-modified 450 bp DNA fragment
The 5′-end texas red-modified 450 bp DNA fragments pUC18 F780*-1229 and pUC18 R1459*-1908 (these are complementary) were prepared by the PCR method using 5′-end texas red-modified 18mers as primers and purified by filtration using Suprec-02. The concentration was determined by ethidium bromide staining. The asterisk (*) indicates texas red modification site, and numerals indicates nucleotide numbering from the replication origin.
(2) High-resolution gel electrophoresis
A standard reaction mixture containing 5′-end texas red-labeled DNA fragment 60 nM, DMF 5% (v/v) and various concentrations of drugs in total 10 μl of sodium phosphate buffer (pH 7.0) 12.5 mM was added into microcentrifugal tube (Eppendorf tube) and allowed to stand at room temperature for overnight. Calf thymus DNA (5 mM, 1 μl) was added thereto and heated at 90° C. for 5 minutes. DNA was collected by ethanol precipitation. […]

Row | SMILES | IC50 [1] [nM] | efficiency of cleavage ([2]; double-strand DNA cleavage, calculated by an amount of used ImPyLDu86) [%] | cleavage of the double-strand DNA (sites) ([2]; upper and lower strand, thermally induced strand cleavage, from the lower concentration)
1 | COC(=O)c1cc2c([nH]1)C(=O)C=C1N(C(=O)c3cc4cc(OC)c(OC)c(OC)c4[nH]3)C[C@H]3C[C@]123 [Duocaraycin, duocarmycin, reference compound] | 4.7 | – | –
2 | COC(=O)c1c(C)[nH]c2c1C13CC1CN(C(=O)/C=C/c1cc(NC(=O)c4nc(NC(C)=O)cn4C)cn1C)C3=CC2=O (centres unmarked) [ImPyLDu86] | 0.7 | ~70 | mainly cleaved at the site 1 and the site 2 of the two strands
3 | COC(=O)c1c(C)[nH]c2c1C13CC1CN(C(=O)/C=C/c1cc(NC(=O)c4cc(NC(C)=O)cn4C)cn1C)C3=CC2=O (centres unmarked) [PyPyLDu86] | 1.5 | – | –
